The values that follow come from US10973832B2, “Muscarinic M1 receptor agonists” (Heptares Therapeutics Limited, priority 2011, dated 2021).

SMILES strings stand for the structures.

For one assay, the system named is Male Wistar rats. The assay can be described thus: Novel object recognition. Type of assay: in vivo. As for the experimental part: The novel object recognition paradigm is based on the greater spontaneous exploration of a novel object, compared with a familiar object, shown by rodents (Ennaceur and Delacour, 1988). […] Male Wistar rats were assessed for cognitive ability in a test apparatus comprising an open-field arena placed in a sound-attenuated room under dimmed lighting. Images of the open-field were captured by digital camera, and viewed on a monitor in an adjoining room. Each rat was subjected to the procedure separately and care taken to remove any olfactory/taste cues by cleaning the arena and test objects with alcohol between trials and rats. All tests are video scored blind to treatment. Following a 10-minute habituation period, each rat was placed into the test arena in the presence of two identical objects (plastic shapes). Each rat was placed facing the same direction at the same position in the arena, and the time spent actively exploring the objects during a 5-minute training period (T1) was recorded. The rat is returned to its home cage between tests. After 24 hours, each rat was again placed in the test arena for 5 minutes (T2) in the presence of one of the familiar objects and a novel object, and the time spent exploring both objects again recorded. The presentation order and position of the objects (left/right) was randomized between rats to prevent bias from order or place preference. Doses of 3, 10 or 30 mg/kg of test compound were administered by oral gavage 90 minutes prior to training (n=8). Donepezil (0.1 mg/kg) and galanthamine (3 mg/kg) were administered via intraperitoneal injection 60 minutes prior to training. Vehicle-treated controls were employed for comparison.

The target of assay [1] is T1, human muscarinic M4 receptor (Homo sapiens, UniProt P08173).
T1 construct: expressed in transfected cells
T1 sequence (P08173 1-479): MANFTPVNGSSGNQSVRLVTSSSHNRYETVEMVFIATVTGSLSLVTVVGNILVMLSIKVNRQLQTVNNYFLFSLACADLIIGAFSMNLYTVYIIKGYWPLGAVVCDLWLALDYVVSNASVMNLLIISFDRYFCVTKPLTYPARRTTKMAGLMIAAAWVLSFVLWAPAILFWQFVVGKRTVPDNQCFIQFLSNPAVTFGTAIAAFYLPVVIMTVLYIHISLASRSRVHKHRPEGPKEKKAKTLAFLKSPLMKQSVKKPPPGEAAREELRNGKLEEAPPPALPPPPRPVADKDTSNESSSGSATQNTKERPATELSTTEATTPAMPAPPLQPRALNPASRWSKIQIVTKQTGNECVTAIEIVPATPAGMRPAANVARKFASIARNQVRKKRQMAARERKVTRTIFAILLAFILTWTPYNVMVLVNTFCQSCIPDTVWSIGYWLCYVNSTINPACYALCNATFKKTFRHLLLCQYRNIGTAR
The experiment in a line: Phospho-ERK1/2 assay, muscarinic M4. Type of assay: cell-based. To be noted: for EC50: CHO cells expressing human M4, phospho-ERK1/2 Alphascreen, read-out: pEC50 M4 (converted); for Emax: CHO, read-out: % Emax cf. ACh (M4). In outline:
(§1)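 Read-out: AlphaScreen SureFire signal for phospho-ERK1/2 in lysates of stably transfected CHO cells, read after 2 h in the dark. Cells were serum-starved overnight and given agonist for 5 min at 37 °C. Values are pEC50 and Emax.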
On the technique in general: Bead proximity is the source of the signal in Alpha formats.

In assay [2] the target is T2, human muscarinic M3 receptor (Homo sapiens, UniProt P20309).
T2 construct: expressed in transfected cells
The experiment in a line: Phospho-ERK1/2 assay, muscarinic M3. Type of assay: cell-based. To be noted: for EC50: CHO cells expressing human M3, phospho-ERK1/2 Alphascreen, read-out: pEC50 M3 (converted); for Emax: CHO, read-out: % Emax cf. ACh (M3). In a few lines: as §1

Assay [3] deals with T3, human muscarinic M2 receptor (Homo sapiens, UniProt P08172).
T3 sequence (P08172 1-466): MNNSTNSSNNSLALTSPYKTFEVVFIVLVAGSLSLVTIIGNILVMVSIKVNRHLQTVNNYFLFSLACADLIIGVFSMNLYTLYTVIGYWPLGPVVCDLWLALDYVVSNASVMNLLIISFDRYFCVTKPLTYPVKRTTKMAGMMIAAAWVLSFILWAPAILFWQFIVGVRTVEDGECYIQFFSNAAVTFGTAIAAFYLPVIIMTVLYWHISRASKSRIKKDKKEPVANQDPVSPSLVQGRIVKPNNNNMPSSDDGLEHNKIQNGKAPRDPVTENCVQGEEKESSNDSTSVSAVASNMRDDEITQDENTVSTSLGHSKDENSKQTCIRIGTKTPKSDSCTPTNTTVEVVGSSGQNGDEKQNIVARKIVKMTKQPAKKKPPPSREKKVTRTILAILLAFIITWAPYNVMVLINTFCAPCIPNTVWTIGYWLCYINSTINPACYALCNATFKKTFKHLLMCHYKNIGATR
The assay can be described thus: Phospho-ERK1/2 assay, muscarinic M2. Format: cell-based. To be noted: for EC50: CHO cells expressing human M2, phospho-ERK1/2 Alphascreen, read-out: pEC50 M2 (converted); for Emax: CHO, read-out: % Emax cf. ACh (M2). In a few lines:
as §1

The test system of assay [4] is CA1 region of rat hippocampal slices. The experiment in a line: CA1 cell firing (fEPSP amplitude). Format: cell-based. To be noted: five point cumulative concentration-response, 6 slices averaged. As for the experimental part: Rat hippocampal slices of […] thickness were cut in chilled (<4° C.) artificial cerebrospinal fluid (aCSF, composition in mM: NaCl 127, KCl 1.6, KH2PO4 1.24, MgSO4 1.3, CaCl2 2.4, NaHCO3 26 and D-glucose 10) using vibratome. Slices were maintained in oxygenated (95% O2/5% CO2) aCSF at room temperature for at least 1 hr prior to electrophysiological recording, after which they were transferred to an interface chamber and constantly perfused with warmed (30° C.) oxygenated aCSF at a flow rate of 1.5-3 ml·min−1. Schaffer collaterals were then stimulated (1-20 V, 0.1 ms pulse width, 0.033 Hz) with a concentric bipolar electrode to evoke field excitatory post synaptic potentials (fEPSPs) recorded from the stratum radiatum of the CA1 region.
Experiments were performed to examine the effect of compound compared to […] carbachol (CCh), on the amplitude of fEPSPs in the CA1 region of rat hippocampal slices. 1 μM CCh was initially applied until steady-state, followed by wash, before performing a five point cumulative concentration-response to compound. Each compound was tested on 6 slices and results averaged. Drug preparation; compound was dissolved in 100% DMSO at a stock concentration of 30 mM, and diluted according to requirements, carbamoylcholine chloride (CCh) was purchased from Sigma (Cat #C4382) and dissolved at a stock concentration of 1 mM in ddH2O.

The target in assay [5] is T4, human muscarinic M1 receptor (Homo sapiens, UniProt P11229).
T4 sequence (P11229 1-460): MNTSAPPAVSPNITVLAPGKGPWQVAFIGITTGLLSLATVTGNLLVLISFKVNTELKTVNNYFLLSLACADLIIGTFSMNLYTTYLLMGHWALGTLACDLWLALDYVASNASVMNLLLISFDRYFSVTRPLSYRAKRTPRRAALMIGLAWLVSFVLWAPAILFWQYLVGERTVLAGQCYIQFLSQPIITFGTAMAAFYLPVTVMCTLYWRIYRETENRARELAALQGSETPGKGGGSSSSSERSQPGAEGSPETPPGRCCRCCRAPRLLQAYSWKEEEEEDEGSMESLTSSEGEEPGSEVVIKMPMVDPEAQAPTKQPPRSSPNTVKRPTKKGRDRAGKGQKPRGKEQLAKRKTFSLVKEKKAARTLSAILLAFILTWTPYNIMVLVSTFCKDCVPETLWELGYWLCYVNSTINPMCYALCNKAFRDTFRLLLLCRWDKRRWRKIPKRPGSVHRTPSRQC
The assay can be described thus: Phospho-ERK1/2 assay, muscarinic M1. Format: cell-based. To be noted: for EC50: CHO cells expressing human M1, phospho-ERK1/2 Alphascreen, read-out: pEC50 M1 (converted); for Emax: CHO, read-out: % Emax cf. ACh (M1). In outline:
as §1

T2 sequence (P20309 whole entry): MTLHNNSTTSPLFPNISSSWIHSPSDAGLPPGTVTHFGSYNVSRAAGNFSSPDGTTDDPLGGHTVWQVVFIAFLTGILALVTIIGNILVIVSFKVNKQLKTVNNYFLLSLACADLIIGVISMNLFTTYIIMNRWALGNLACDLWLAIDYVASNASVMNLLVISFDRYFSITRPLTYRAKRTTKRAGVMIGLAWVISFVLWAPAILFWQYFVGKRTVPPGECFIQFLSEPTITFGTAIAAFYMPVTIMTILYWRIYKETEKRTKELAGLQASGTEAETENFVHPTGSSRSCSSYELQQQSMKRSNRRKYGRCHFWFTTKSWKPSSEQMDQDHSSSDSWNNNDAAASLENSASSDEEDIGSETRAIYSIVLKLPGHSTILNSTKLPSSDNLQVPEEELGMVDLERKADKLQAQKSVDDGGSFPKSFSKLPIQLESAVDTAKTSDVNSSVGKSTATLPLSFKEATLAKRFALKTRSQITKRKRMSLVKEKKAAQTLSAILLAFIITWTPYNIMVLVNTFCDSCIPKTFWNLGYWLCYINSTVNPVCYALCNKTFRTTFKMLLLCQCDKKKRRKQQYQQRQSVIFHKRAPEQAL

As to `COc1ccc2c3c1O[C@H]1C[C@@H](O)C=C[C@@]31CCN(C)C2` [galanthamine], in the assay with Male Wistar rats (3 mg/kg intraperitoneal 60 minutes prior to training, p<0.05), the “novel object recognition memory vs vehicle-treated controls” value is reported as “significantly improved novel object recognition memory”.

Regarding `COc1cc2c(cc1OC)C(=O)C(CC1CCN(Cc3ccccc3)CC1)C2` (centres unmarked) [Donepezil, donepezil], the “novel object recognition memory vs vehicle-treated controls” value in the assay on Male Wistar rats (0.1 mg/kg intraperitoneal 60 minutes prior to training) is listed as “without effect on novel object recognition”.

Broadly, the Emax is the maximal effect, on the per cent scale that the assay sets. On to `CCOC(=O)N1CCCC(N2CCC(C(=O)NCC(C)C)CC2)CC1` (centres unmarked) [Example 6, ethyl 4-(4-((2-methylpropyl)carbamoyl)piperidin-1-yl)azepane-1-carboxylate], for which the EC50 in assay [1] was 1050 nM; in assay [2] it was over 20000 nM; in assay [3] it was over 20000 nM; in assay [4], 4100 nM; in assay [5], 85.1 nM. Further, the Emax in assay [1] was 76%; in assay [2], 33%; in assay [3], 10%; in assay [5], 113%.

With `CCOC(=O)N1CCCC(N2CCC(F)(C(=O)NCC(C)C)CC2)CC1` (centres unmarked) [Example 40, ethyl 4-(4-fluoro-4-((2-methylpropyl)carbamoyl)piperidin-1-yl)azepane-1-carboxylate], the EC50 is 851 nM in assay [1]; over 20000 nM in assay [2]; over 20000 nM in assay [3]; 9400 nM in assay [4]; 45.7 nM in assay [5]. In addition, the maximal response (Emax) worked out at 89% in assay [1], 9% in assay [2], 13% in assay [3] and 106% in assay [5].

Turning to `CCOC(=O)N1CCCC(N2CCC(C)(C(=O)NCC(C)C)CC2)CC1` (centres unmarked) [Example 56, ethyl 4-(4-methyl-4-((2-methylpropyl)carbamoyl)piperidin-1-yl)azepane-1-carboxylate], the EC50 in assay [1] is 1350 nM; in assay [2], over 20000 nM; in assay [3] it was over 20000 nM; in assay [5], 64.6 nM. Also, the maximum response (Emax) is 46% in assay [1], 8% in assay [2], 4% in assay [3] and 108% in assay [5].

In the case of `CCOC(=O)N1CCC[C@@H](N2CCC(C(=O)NC3(C)CCC3)CC2)CC1` [Example 66, ethyl (4R)-4-{4-[(1-methylcyclobutyl)carbamoyl]piperidin-1-yl}azepane-1-carboxylate], the EC50 in assay [1] was 2450 nM; in assay [2] it was over 20000 nM; in assay [3], over 20000 nM; in assay [5], 275 nM. Besides, the maximal effect (Emax) is 66% in assay [1], 0% in assay [2], 12% in assay [3] and 94% in assay [5].

Consider `CCOC(=O)N1CCCC(N2CCC(C(=O)NCC3(CC)CCC3)CC2)CC1` (centres unmarked) [Example 37, ethyl 4-(4-(((1-ethylcyclobutyl)methyl)carbamoyl)piperidin-1-yl)azepane-1-carboxylate], for which the EC50 is 191 nM in assay [1], over 20000 nM in assay [2], over 20000 nM in assay [3] and 13.8 nM in assay [5]. Moreover, the Emax in assay [1] turned out to be 75%; in assay [2], 10%; in assay [3] it was 8%; in assay [5], 87%.
